Experimental data published in US9808530B2, “Composition of tiacumicin compounds” (Astellas Pharma Europe Ltd., priority 2013, dated 2017).

Columns and labels:
[1] = oral administration; cited from earlier work
[2] = Storage stability of fidaxomicin with a sugar in a ratio of 1:9; format: physicochemical; details: glass bottle
Procedure: Fidaxomicin and a sugar, selected from the group consisting of D-mannitol, erythritol, isomalt and trehalose, in a ratio of 1:9, were transferred into a glass bottle and stored at 5° C. during 10 days, 70° C. during 9 days and 40° C./75% RH during 1 month, respectively. In the presence of each sugar the degradation of fidaxomicin increased when stored at 70° C. during 9 days. […] (see Table 7).

[3] = Foaming property of fidaxomicin suspensions in water (tube shaken, foaming checked); format: physicochemical; details: 400 mg fidaxomicin in 10 mL distilled water; immediately after preparation and 1 hour after preparation
Procedure: To 400 mg of fidaxomicin was added 10 mL of distilled water in a tube. The mixture was shaken and allowed to stand.
Hydroxypropylcellulose (HPC-L (middle viscosity grade) and HPC-SSL (low viscosity grade) respectively), in a concentration of 0.3 and 0.6 w/v % respectively, was added to 5 mL of distilled water in a tube which contained 0 and 200 mg respectively of fidaxomicin. Each mixture was shaken and allowed to stand.
Xanthan gum in a concentration of 0.2% w/v was added to 5 mL of distilled water in a tube, which contained 0 and 200 mg respectively of fidaxomicin. Each mixture was shaken and allowed to stand.
An amount of the granulate corresponding to 200 mg fidaxomicin was weighed into a tube and 5 ml, of water was added. The tube was vigorously shaken for about 1 min. Foaming of the suspension was not observed.
An amount of each of the granulates OS-5-OS-9, corresponding to 200 mg fidaxomicin, was weighed into a tube and 5 mL of water was added. Further, suspensions OS-10 and OS-11 were prepared by addition of 2.5 mg and 5.0 mg respectively of xanthan gum to a suspension with composition OS-5. Each tube was vigorously shaken for about 1 min. In none of the suspensions foaming was observed.
Each of the granulate compositions OS-1, OS-2 and OS-3 was weighed into a tube, water was added and the tubes were vigorously shaken for about 1 minute. […]

[4] = low solubility, low permeability; cited from earlier work

CCc1c(Cl)c(O)c(Cl)c(O)c1C(=O)O[C@H]1[C@H](O)[C@H](OC)[C@H](OC/C2=C\C=C\C[C@H](O)/C(C)=C/[C@H](CC)[C@@H](O[C@@H]3OC(C)(C)[C@@H](OC(=O)C(C)C)[C@H](O)[C@@H]3O)/C(C)=C/C(C)=C/C[C@@H]([C@@H](C)O)OC2=O)O[C@@H]1C [fidaxomicin, 3-[[[6-deoxy-4-O-(3,5-dichloro-2-ethyl-4,6-dihydroxybenzoyl)-2-O-methyl-β-D-mannopyranosyl]oxy]methyl]-12(R)-[[6-deoxy-5-C-methyl-4-O-(2-methyl-1-oxopropyl)-β-D-lyxo-hexopyranosyl]oxy]-11(S)-ethyl-8(S)-hydroxy-18(S)-(1(R)-hydroxyethyl)-9,13,15-trimethyloxacyclooctadeca-3,5,9,13,15-pentaen-2-one]
absorption from the intestinal tract [1]: poorly absorbed | Total related substances (%) ([2]; 5° C./10 days): 1.91% | Total related substances (%) ([2]; 70° C./9 days): 5.10% | foaming property on contact with water [3]: intrinsically foaming property | BCS class [4]: BCS Class IV
